Laboratory results from patent US11311598B2, “Peptides and analogs for use in the treatment of oral mucositis” (Soligenix, Inc., priority 2013, dated 2022).
Where no end group is shown, it is not given here.

Tests used:
whole blood = assay: ex vivo LPS stimulation of whole blood from Phase 1 subjects; type: cell-based, human; conditions: dose range 0.15-2 mg/kg; 4 hours in vitro LPS stimulation of whole blood
Procedure: In ex vivo investigations using blood samples obtained during the Phase 1 healthy human volunteer study, a number of cytokine and chemokine analytes were quantified after 4 hours of in vitro stimulation of whole blood with LPS. The inter-individual variability in analyte levels was larger than any variation in time or response to RIVPA (SEQ ID NO. 5) or placebo administration and the data were therefore self-normalized using the individual pre-dose analyte level to standardize all responses for each individual subject (the Activity Ratio). RIVPA (SEQ ID NO. 5) effects on the analyte Activity Ratios (ARs) were neither constant throughout time, nor linearly dose responsive.

mouse normal blood cells = assay: proliferation of mouse normal blood cells in vitro; type: cell-based
human normal blood cells = assay: proliferation of human normal blood cells in vitro; type: cell-based
mice = assay: mouse IV toxicity studies (pilot single dose, GLP 14-day, acute); type: in vivo
Procedure: (§1) Two pilot and 2 definitive repeat-dose toxicity studies were conducted with RIVPA (SEQ ID NO. 5) in mice and cynomolgus monkeys using the intravenous (IV; slow bolus) route of administration. All studies were conducted by LAB Research Inc., Canada.
(§2) These resolved within a few minutes without detectable residual effects.
The safety of multiple daily injections of RIVPA (SEQ ID NO. 5) has also been evaluated in GLP studies in mice and cynomolgus monkeys. In mouse, doses of 20, 60, or 90 mg/kg/day were given IV for 14 days.
(§3) The observed respiratory depression occurred at different dose levels in different species, and was not predicted by allometric scaling. In particular, the mouse appeared to be the most sensitive species with acute toxicity occurring rarely at 60 mg/kg (HED: ^˜5 mg/kg) and commonly at 90 mg/kg (HED: ^˜7 mg/kg). In contrast in NHP (cynomologus monkey), acute toxicity occurred occasionally at 160 mg/kg (HED: ^˜50 mg/kg) and consistently at 240 mg/kg (HED: ^˜78 mg/kg).

cynomolgus monkeys = assay: cynomolgus monkey IV toxicity studies (pilot, GLP 14-day); type: in vivo; conditions: for occurrence of acute toxicity (respiratory depression): cynomolgus monkey
Procedure: as §1, §2
RIVPA (SEQ ID NO. 5) at 20, 80, 160 mg/kg/day was given IV to cynomolgus monkeys for 14 days. […] In all cases, these clinical signs resolved within a few minutes. […] A dose level of 80 mg/kg/day was considered to be the No-Observed-Adverse-Effect-Level (NOAEL) for this study.
Overall, the NOAEL is considered to be 80 mg/kg/day for cynomolgus monkeys since transient clinical signs were limited to a single study and occurred in only 2 instances of the 98 administrations of the drug at this dose level.
as §3

leukopenic animals = assay: infection studies in leukopenic animals (antibiotic interference); type: in vivo
MRSA (UC6685) = assay: MRSA peritoneal infection model in combination with vancomycin; type: in vivo, mouse; conditions: female CF-1 mice, 50 mg/kg IV 48 or 72 h prior to inoculation, with vancomycin 3 mg/kg SC 1 and 5 h after infection; 5 days
Procedure: RIVPA (SEQ ID NO. 5) (50 mg/kg) or saline treatment was administered IV either 48 or 72 h prior to inoculation with MRSA (UC6685; 8.2×10^7 colony forming units [cfu]) to female CF-1 mice (N=10/group). Vancomycin treatment (3 mg/kg) was administered subcutaneously (SC), 1 and 5 h after infection. Survival was monitored once daily for 5 days.

[1] = Phase 1 study, human pharmacokinetics; type: in vivo
Procedure: In the single-dose phase of a healthy volunteer Phase 1 trial, RIVPA (SEQ ID NO. 5) was rapidly eliminated, with plasma levels decreasing to less than 10 percent of the maximum concentration (Cmax) within 9 min after the start of the 4-minute IV infusion. Following the rapid decline, a slower elimination phase was observed. […] Maximum plasma concentrations and total exposure levels were dose-proportional and clearance of RIVPA (SEQ ID NO. 5) from the circulation was rapid, consistent with the mouse and NHP experience.
In light of the high clearance and short elimination half-life, accumulation following daily injection was not expected to occur.

[2] = tested on: S. aureus (Catalog No. 25923, ATCC); assay: S. aureus acute peritoneal infection model, local IP treatment; type: in vivo, mouse; conditions: female CD-1 mice, 9.5 mg/kg IP 4 h after infection; 24 h after infection
Procedure: Intraperitoneal (IP) injection of S. aureus (Catalog No. 25923, ATCC, 6×10^7 cfu) with 5% mucin was administered IP to female CD-1 mice (N=8/group) and RIVPA (SEQ ID NO. 5) (9.5 mg/kg) was injected IP 4 h later. Mice were sacrificed 24 h after infection and peritoneal lavage fluid was assessed for bacterial counts. The results of this study are shown in FIG. 11 (each data point represents the result from an individual mouse—dead mice were given the highest bacterial count of any mouse obtained in the study and are represented as open symbols in the graph).

cynomolgus monkey = assay: cardiovascular (CV)/pulmonary study in cynomolgus monkey; type: in vivo
Source text: In summary, the major toxicological finding was an acute-onset respiratory depression, accompanied by labored breathing, recumbency and transient decreased activity.

metabolism and excretion = conditions: in vivo

RIVPA-NH2 [RIVPA (SEQ ID NO. 5), RIVPA]
anti-inflammatory status (TNF RII, IL-1ra vs TNFα, IL-1β Activity Ratios) (whole blood): evidence of an increase | proliferation of normal blood cells (mouse normal blood cells): did not promote the proliferation | proliferation of normal blood cells (human normal blood cells): did not promote the proliferation | immune-related organ weights, histopathology, hematology and clinical chemistry (mice; mouse 14-day toxicity study): no changes were observed | adverse effects (mice; mouse, 20 mg/kg for 14 days): No adverse effects were observed | mortality or clinical signs (mice; mouse, 20 mg/kg/day IV for 14 days): No test article-related mortality or clinical signs | HED of acutely toxic dose (mice; mouse, 60 mg/kg): ~5 mg/kg | occurrence of acute toxicity (respiratory depression) (mice; mouse, 60 mg/kg): rarely | mortality (mice; mouse, 60 mg/kg/day IV for 14 days): Lethality was also observed in 1 animal | HED of acutely toxic dose (mice; mouse, 90 mg/kg): ~7 mg/kg | occurrence of acute toxicity (respiratory depression) (mice; mouse, 90 mg/kg): commonly | mortality (mice; mouse, 90 mg/kg/day IV for 14 days): Deaths were observed | organ toxicity, biochemistry, hematology (mice; mouse, survivors of all groups, 14 days): no evidence of toxicity in any organ or abnormal biochemistry or hematology | HED of acutely toxic dose (cynomolgus monkeys; NHP 160 mg/kg): ~50 mg/kg | HED of acutely toxic dose (cynomolgus monkeys; NHP 240 mg/kg): ~78 mg/kg | immune-related organ weights, histopathology, hematology and clinical chemistry (cynomolgus monkeys; NHP 14-day toxicity study): no changes were observed | clinical signs (cynomolgus monkeys; NHP pilot studies, 90 (1 animal), 180 (both animals) and 220 (1 animal) mg/kg, during and shortly after dosing): mild clinical signs | T-cell, B-cell or NK-cell counts (cynomolgus monkeys; NHP, after 14 days of intravenous dosing): no effect | occurrence of acute toxicity (respiratory depression) (cynomolgus monkeys; 160 mg/kg): occasionally | occurrence of acute toxicity (respiratory depression) (cynomolgus monkeys; 240 mg/kg): consistently | clinical signs (cynomolgus monkeys; cynomolgus monkeys, 160 mg/kg/day IV for 14 days): Transient decreased activity and partially closed eyes | toxicity (cynomolgus monkeys; cynomolgus monkeys, 20 and 80 mg/kg/day IV for 14 days): did not result in any evidence of toxicity | interference with antibiotic efficacy (leukopenic animals): no interference | survival (MRSA (UC6685)): increased survival | pre-dose concentrations ([1]; daily for 7 days, Days 5, 6, 7 and Day 8 (24 h after start of infusion on Day 7), all subjects): below the lower limit of quantitation (LLOQ) | clearance from the circulation ([1]; human subjects, IV administration): within minutes | Tmax ([1]; human, plasma, intravenous, after the start of infusion, dose range 0.15 mg/kg to 8 mg/kg, read-out: mean time of maximum concentration (Tmax)): 4 to 4.8 min | maximum plasma concentrations and total exposure levels versus dose ([1]; single-dose phase): dose-proportional | plasma levels relative to the maximum concentration (Cmax) ([1]; within 9 min after the start of the 4-minute IV infusion, single-dose phase): less than 10% | reduction of bacterial load in peritoneal lavage fluid [2]: over 7 logs | clinical signs (cynomolgus monkey; 80 mg/kg, during dosing): transient drooping eye lids and prostration | clinical signs (cynomolgus monkey; 220 mg/kg): transient, severe clinical signs | respiratory/cardiovascular effects and mortality (cynomolgus monkey; 220 mg/kg, 1 animal): marked reduction in respiratory rate followed by bradycardia, hypotension and death | respiratory effects (cynomolgus monkey; 20 or 80 mg/kg): No respiratory effects | cardiac toxicity or QT prolongation (cynomolgus monkey; nonhuman primates): no cardiac toxicity or QT prolongation | cardiovascular effects and ECG parameters (cynomolgus monkey; single IV doses of 20 or 80 mg/kg): no cardiovascular effects or changes in electrocardiogram (ECG) parameters | primary metabolism (metabolism and excretion): proteases throughout body tissues | role of urine, feces and bile excretion in clearance (metabolism and excretion): very minor role
